Measurements reported in the supplement of paper PMC11451515.

Assays:
Settings in all cases: 48 h
NOMO1 [1] = assay: AUC of viability dose-response curve (% viability x log10 dose units); higher = less sensitive
Method in brief: (§1)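 Leukemia cells adapted to each medium were seeded at 500 or 1000 cells/well in 1536-well plates and dosed with library compounds in DMSO at 11 threefold doses from 47 μM to 0.79 nM for 48 h at 37°C. CellTiter-Glo One luminescence was normalised per plate to DMSO and cell-free wells, then fitted with a four-parameter log-logistic model over log10 doses. Area under the curve was taken from this fit by the trapezoidal rule, with curves above full viability scaled and curves failing quality control removed.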

P12-Ichikawa [2] = assay: as above
Method in brief: as §1

SEM cells [3] = assay: as above
Method in brief: as §1

NOMO1 [4] = assay: cell viability relative to DMSO control; higher = less cytotoxic
Method in brief: (§2)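 Viability values are per-plate percentages of DMSO wells, with background from cell-free wells. Library compounds in DMSO were pin-dosed, in an 11-point threefold series from 47 μM to 0.79 nM, onto NOMO1 or SEM (500 cells/well) or P12-Ichikawa (1000 cells/well) leukemia cells in 1536-well plates (5 μl). Those cells had been adapted for at least four passages in each medium, and CellTiter-Glo One luminescence was read after 48 h at 37°C.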

P12-Ichikawa [5] = assay: as above
Method in brief: as §2

SEM cells [6] = assay: as above
Method in brief: as §2

CN(C)C[C@@H]1CC[N]2C=C(C3=C2C=CC=C3)C/4=C(/C(=O)NC4=O)C5=C[N](CCO1)C6=C5C=CC=C6
AUC of viability dose-response curve
Settings	NOMO1 [1]	P12-Ichikawa [2]	SEM cells [3]
HPLM + 10% dialyzed FBS	443	458	391
RPMI 5 mM glucose + 10% FBS	423	453	412
RPMI 5 mM glucose + 10% dialyzed FBS	425	459	393

cell viability [%]
Settings	NOMO1 [4]	P12-Ichikawa [5]	SEM cells [6]
HPLM + 10% dialyzed FBS, 0.000781 µM	88.8	99.6	87.6
HPLM + 10% dialyzed FBS, 0.00234 µM	111	98.3	56.8
HPLM + 10% dialyzed FBS, 0.00702 µM	109	100	105
HPLM + 10% dialyzed FBS, 0.0211 µM	96.6	106	110
HPLM + 10% dialyzed FBS, 0.0632 µM	102	105	97.5
HPLM + 10% dialyzed FBS, 0.19 µM	91.4	110	99.6
HPLM + 10% dialyzed FBS, 0.569 µM	94	107	91.2
HPLM + 10% dialyzed FBS, 1.71 µM	88.7	100	81.4
HPLM + 10% dialyzed FBS, 5.12 µM	95.4	101	79.2
HPLM + 10% dialyzed FBS, 15.4 µM	85.3	97.5	56.8
HPLM + 10% dialyzed FBS, 46.1 µM	27.7	30.7	2.57
RPMI 5 mM glucose + 10% FBS, 0.000781 µM	98.3	92.9	118
RPMI 5 mM glucose + 10% FBS, 0.00234 µM	85.9	94.8	59.2
RPMI 5 mM glucose + 10% FBS, 0.00702 µM	89.3	100	97.3
RPMI 5 mM glucose + 10% FBS, 0.0211 µM	87.4	98.6	97
RPMI 5 mM glucose + 10% FBS, 0.0632 µM	91.7	108	99.2
RPMI 5 mM glucose + 10% FBS, 0.19 µM	92.9	104	119
RPMI 5 mM glucose + 10% FBS, 0.569 µM	93	95.7	105
RPMI 5 mM glucose + 10% FBS, 1.71 µM	87.5	96.2	89.1
RPMI 5 mM glucose + 10% FBS, 5.12 µM	86.1	97.6	77.7
RPMI 5 mM glucose + 10% FBS, 15.4 µM	83.5	83.4	49.6
RPMI 5 mM glucose + 10% FBS, 46.1 µM	73.3	55.3	2.71
RPMI 5 mM glucose + 10% dialyzed FBS, 0.000781 µM	90.6	110	97.7
RPMI 5 mM glucose + 10% dialyzed FBS, 0.00234 µM	84.2	106	47.9
RPMI 5 mM glucose + 10% dialyzed FBS, 0.00702 µM	99.8	108	102
RPMI 5 mM glucose + 10% dialyzed FBS, 0.0211 µM	93.4	109	105
RPMI 5 mM glucose + 10% dialyzed FBS, 0.0632 µM	99.6	103	107
RPMI 5 mM glucose + 10% dialyzed FBS, 0.19 µM	97.3	102	105
RPMI 5 mM glucose + 10% dialyzed FBS, 0.569 µM	92.3	114	93.7
RPMI 5 mM glucose + 10% dialyzed FBS, 1.71 µM	85.8	117	87.2
RPMI 5 mM glucose + 10% dialyzed FBS, 5.12 µM	83.7	105	73.2
RPMI 5 mM glucose + 10% dialyzed FBS, 15.4 µM	77.7	93.7	51.8
RPMI 5 mM glucose + 10% dialyzed FBS, 46.1 µM	67.7	58.9	2.49

CC(=O)O[C@@]12CO[C@@H]1C[C@H](O)[C@]3(C)[C@@H]2[C@H](OC(=O)C4=CC=CC=C4)[C@]5(O)C[C@H](OC(=O)C(O)[C@@H](NC(=O)OC(C)(C)C)C6=CC=CC=C6)C(=C(/[C@@H](O)C3=O)C5(C)C)/C (some centres undefined)
AUC of viability dose-response curve
Settings	NOMO1 [1]	P12-Ichikawa [2]	SEM cells [3]
HPLM + 10% dialyzed FBS	147	126	112
RPMI 5 mM glucose + 10% FBS	112	125	78.5
RPMI 5 mM glucose + 10% dialyzed FBS	118	174	86.9

cell viability [%]
Settings	NOMO1 [4]	P12-Ichikawa [5]	SEM cells [6]
HPLM + 10% dialyzed FBS, 0.000781 µM	32.4	28	23.5
HPLM + 10% dialyzed FBS, 0.00234 µM	37.3	36.3	25.1
HPLM + 10% dialyzed FBS, 0.00702 µM	34.7	37.7	25.4
HPLM + 10% dialyzed FBS, 0.0211 µM	39.4	38	26
HPLM + 10% dialyzed FBS, 0.0632 µM	42	42.2	26.5
HPLM + 10% dialyzed FBS, 0.19 µM	43	40.1	27.2
HPLM + 10% dialyzed FBS, 0.569 µM	31.7	24.8	26.1
HPLM + 10% dialyzed FBS, 1.71 µM	27.4	19.8	23.3
HPLM + 10% dialyzed FBS, 5.12 µM	27.7	8.29	22.7
HPLM + 10% dialyzed FBS, 15.4 µM	7.8	4.99	18.6
HPLM + 10% dialyzed FBS, 46.1 µM	5.55	3.29	5.16
RPMI 5 mM glucose + 10% FBS, 0.000781 µM	23.9	33.6	13.7
RPMI 5 mM glucose + 10% FBS, 0.00234 µM	27	32.1	22
RPMI 5 mM glucose + 10% FBS, 0.00702 µM	25.5	35.6	21.2
RPMI 5 mM glucose + 10% FBS, 0.0211 µM	28.9	35.2	18.1
RPMI 5 mM glucose + 10% FBS, 0.0632 µM	28.2	37.2	20.1
RPMI 5 mM glucose + 10% FBS, 0.19 µM	27.1	34.8	20.7
RPMI 5 mM glucose + 10% FBS, 0.569 µM	24.7	25.5	18.1
RPMI 5 mM glucose + 10% FBS, 1.71 µM	24.8	25.5	16.7
RPMI 5 mM glucose + 10% FBS, 5.12 µM	20	11.8	12.1
RPMI 5 mM glucose + 10% FBS, 15.4 µM	12.6	6.81	9.57
RPMI 5 mM glucose + 10% FBS, 46.1 µM	8.59	3.21	4.28
RPMI 5 mM glucose + 10% dialyzed FBS, 0.000781 µM	25.2	42.5	23.4
RPMI 5 mM glucose + 10% dialyzed FBS, 0.00234 µM	30.6	46.4	21.1
RPMI 5 mM glucose + 10% dialyzed FBS, 0.00702 µM	27.8	48.1	23
RPMI 5 mM glucose + 10% dialyzed FBS, 0.0211 µM	31.5	57.5	21.2
RPMI 5 mM glucose + 10% dialyzed FBS, 0.0632 µM	28.9	49.4	21.4
RPMI 5 mM glucose + 10% dialyzed FBS, 0.19 µM	29.7	51.4	19.5
RPMI 5 mM glucose + 10% dialyzed FBS, 0.569 µM	27.3	40.2	18.9
RPMI 5 mM glucose + 10% dialyzed FBS, 1.71 µM	26.2	31.5	16.7
RPMI 5 mM glucose + 10% dialyzed FBS, 5.12 µM	18.8	15.5	16.5
RPMI 5 mM glucose + 10% dialyzed FBS, 15.4 µM	11	5.67	10.5
RPMI 5 mM glucose + 10% dialyzed FBS, 46.1 µM	9.95	2.26	2.56

C[C@@H]1CC[C@@]2(OC1)OC1CC3C4CC=C5CC(O)CCC5(C)C4CCC3(C)C1[C@@H]2C (some centres undefined)
AUC of viability dose-response curve
Settings	NOMO1 [1]	P12-Ichikawa [2]	SEM cells [3]
HPLM + 10% dialyzed FBS	428	419	444
RPMI 5 mM glucose + 10% FBS	402	453	394
RPMI 5 mM glucose + 10% dialyzed FBS	407	444	415

cell viability [%]
Settings	NOMO1 [4]	P12-Ichikawa [5]	SEM cells [6]
HPLM + 10% dialyzed FBS, 0.000781 µM	95.6	101	88.6
HPLM + 10% dialyzed FBS, 0.00234 µM	84.6	105	48
HPLM + 10% dialyzed FBS, 0.00702 µM	105	97	101
HPLM + 10% dialyzed FBS, 0.0211 µM	114	104	100
HPLM + 10% dialyzed FBS, 0.0632 µM	113	107	100
HPLM + 10% dialyzed FBS, 0.19 µM	112	106	106
HPLM + 10% dialyzed FBS, 0.569 µM	116	112	107
HPLM + 10% dialyzed FBS, 1.71 µM	127	106	95.1
HPLM + 10% dialyzed FBS, 5.12 µM	117	110	102
HPLM + 10% dialyzed FBS, 15.4 µM	44.5	25.8	91.4
HPLM + 10% dialyzed FBS, 46.1 µM	16.5	6.49	73.6
RPMI 5 mM glucose + 10% FBS, 0.000781 µM	89.7	98.9	85.9
RPMI 5 mM glucose + 10% FBS, 0.00234 µM	87.3	99.9	40.2
RPMI 5 mM glucose + 10% FBS, 0.00702 µM	95	102	97.9
RPMI 5 mM glucose + 10% FBS, 0.0211 µM	95.3	106	89.7
RPMI 5 mM glucose + 10% FBS, 0.0632 µM	96	106	93.3
RPMI 5 mM glucose + 10% FBS, 0.19 µM	90.6	99.3	93.2
RPMI 5 mM glucose + 10% FBS, 0.569 µM	93	104	93.6
RPMI 5 mM glucose + 10% FBS, 1.71 µM	98.5	108	90.4
RPMI 5 mM glucose + 10% FBS, 5.12 µM	90.1	118	96.1
RPMI 5 mM glucose + 10% FBS, 15.4 µM	48.5	86.8	76.3
RPMI 5 mM glucose + 10% FBS, 46.1 µM	11.8	36.4	26.6
RPMI 5 mM glucose + 10% dialyzed FBS, 0.000781 µM	90.6	92	86.3
RPMI 5 mM glucose + 10% dialyzed FBS, 0.00234 µM	83.5	96.3	44.1
RPMI 5 mM glucose + 10% dialyzed FBS, 0.00702 µM	97	92.3	93.9
RPMI 5 mM glucose + 10% dialyzed FBS, 0.0211 µM	87.6	99.3	107
RPMI 5 mM glucose + 10% dialyzed FBS, 0.0632 µM	87.4	97	88.6
RPMI 5 mM glucose + 10% dialyzed FBS, 0.19 µM	93.1	106	104
RPMI 5 mM glucose + 10% dialyzed FBS, 0.569 µM	91.9	105	92.4
RPMI 5 mM glucose + 10% dialyzed FBS, 1.71 µM	90.8	105	84.1
RPMI 5 mM glucose + 10% dialyzed FBS, 5.12 µM	88.3	119	101
RPMI 5 mM glucose + 10% dialyzed FBS, 15.4 µM	73.4	73.8	85.5
RPMI 5 mM glucose + 10% dialyzed FBS, 46.1 µM	29.1	16.8	61.5
